Laboratory results reported in patent publication US20060189546A1, “Compounds for treating autoimmune and demyelinating diseases” (priority 2005, published 2006).

Experiments:
[1] = tested on: Experimental Autoimmune Encephalomyelitis (EAE); experiment: Acute EAE, daily dosing for 15 days (Example 5); type: in vivo, guinea pigs
Method: Accordingly, three randomized cohorts of guinea pigs with EAE induced by the method of Example 2, were treated, respectively, with 6 mg/kg of Symadex™ (full salt hydrate) and 0.35 mg/kg of mitoxantrone. Animals were treated daily, by intraperitoneal injection, for 15 days, starting on day 7 post immunization. Controls were treated with vehicle. We reasoned that 15 consecutive, 6 mg/kg doses of Symadex™ would represent a level of drug exposure that would be commensurate with the “20 mg/kg every 72 hours” regimen in Example 4 and consistent with a mid level exposure between the 20 mg/kg and the 40 mg/kg schedule given weekly, in Example 2. The mitoxantrone dose was selected to reflect a typical high dose given to rats or mice by daily dosing in the prior art, but allometrically scaled to the guinea pig.

[2] = tested on: Experimental Autoimmune Encephalomyelitis (EAE); experiment: Chronic EAE, two doses 72 hours apart (Example 4); type: in vivo, guinea pig; details: 20 mg/kg i.p., 2 doses 72 hours apart
Method: In order to test the possibility that a more frequent dosing schedule would offer a more rapid resolution of disease symptoms, an experiment was performed to match the dosing cycle to the observed periodicity of response. Accordingly, the method of Experiment 2 was applied to a cohort of animals and controls, which were allowed to reach the chronic phase of disease at 30 days post immunization. Six animals with a disease score of 1 were selected and half were treated with 20 mg/kg Symadex™ administered intraperitoneally. Two dose were given 72 hours apart to 3 animals. Three animals served as vehicle controls.

HCT116 cell line = experiment: GI50 concentration in HCT116 cells; type: cell-based; details: Homo sapiens, HCT-116
B-lymphocyte cells = experiment: Cell Proliferation, B-Cell + LPS ([3H]thymidine incorporation); type: cell-based, balb/c mice; details: Mus musculus
Method: B-lymphocyte cells isolated from the spleen of balb/c mice weighing 17±1 g were used. Test compound and/or vehicle were incubated with the cells (1.5×10^6/ml) in the presence of 10 μg/ml lipopolysaccharide (LPS) in AIM-V medium pH 7.4 at 37° C. for 24 hours. [^3H]Thymidine (120 nM) was then added for an additional overnight incubation period. Thymidine incorporation was assessed by liquid scintillation counting.
Test compound-induced suppression of cell proliferation by 50 percent or more (≧50%) relative to vehicle control response indicates significant inhibitory activity.

[3] = tested on: Experimental Autoimmune Encephalomyelitis (EAE); experiment: Chronic-progressive EAE, weekly treatment for 4 weeks (Example 2); type: in vivo, Hartley guinea pigs
Method: In the present experiment, female juvenile Hartley guinea pigs (225 g) were immunized with homogenized whole CNS (in saline) with an equal amount of complete Freund's Adjuvant and 10 mg added killed M. tuberculosis. The animals (>95%) show clinical signs starting on day 7 post immunization. An acute event of varying severity occurs between day 7 and day 20 followed by a continuous accumulation of clinical abnormality with hind limb paralysis, fecal impaction and incontinence. […] These clinical features indicate inflammation-induced lumbar spinal cord demyelination.
In these experiments, the immunized animals were nursed until day 40 or day 52 and then treated with 8 mg/kg and 16 mg/kg Symadex™ (intra cardiac), or 20 mg/kg and 40 mg/kg Symadex™ (i.p.) once a week for 4 weeks. Controls were given vehicle. Clinical signs were scored daily and the weights recorded. At the completion of the treatment period, the brain and spinal cord were dissected, formalin fixed and blocked for routine pathological examination of meningeal inflammation, perivascular infiltration (cuffing), parenchymal myelitis and demyelination by a blinded observer using hematoxylin-eosin and solochrome R cyanin stained sections.
Untreated, chronic EAE animals (n=5) were sacrificed on day 40, as well as non-EAE controls (n=5). Following each 10-day treatment interval, five animals from each group were sacrificed (0.25 ml sodium pentobarbital), blood samples were collected for FACS analysis (see below), and the brain and spinal cord dissected and sectioned. Three spinal sections were used, corresponding to lumbar, thoracic and cervical regions of the cord. The brain was cut into five transverse sections; the first three proximal sections were combined in one block, and the last two distal sections in another. Tissues were fixed in 10% formalin and embedded in paraffin. Five micrometer sections were stained with hematoxylin-eosin (H-E) or solochrome-R-cyanin (SCR) and evaluated by a blinded observer in each of the four categories: meningeal inflammation, perivascular infiltration, encephalitis or myelitis and demyelination (Table 2). The combined pathological score represents the total score (out of a potential 20) from all five CNS sections in each animal.
To quantify the abnormalities observed in the spinal cord, sections stained with H-E were divided into 12 representative pie-shaped areas. In each area, the number of cells within a 0.12-mm^2 field of view was counted using Sigma Scan Pro image analysis software (SPSS), and the combined mean number of cell in all 12 areas was calculated for the whole spinal cord (36 fields of view per animal). Note that as all cell nuclei were counted, the number of cells may include neurons and glial cells in addition to infiltrates.

[4] = necropsy after 15 daily doses, Symadex 6 mg/kg, mitoxantrone 0.35 mg/kg
[5] = B-cell, read-out: % Growth Inhibition
[6] = CNS histopathology after treatment

CCN(CC)CCNc1ccc2ncn3c4ccc(O)cc4c(=O)c1c23 [Symadex™, 5-[[(diethylamino)ethyl]amino]-8-hydroxyimidazo[4,5,1-de]-acridine-6-one]
clinical score (neurological impairment) ([1]; daily i.p. for 15 days from day 7, Symadex 6 mg/kg, mitoxantrone 0.35 mg/kg): the initial rise in neurological impairment is arrested | weight gain profile vs vehicle controls, statistical significance ([1]; guinea pig, in vivo): did not show statistical significance | reduction of meningeal inflammation (M) pathology score [1, 4]: does not | reduction of perivascular cuffing (P), myelitis (E) and demyelination (D) pathology scores [1, 4]: statistically significant differences (p value<0.05) from control | clinical scores [2]: reversed the progression of disease and restored baseline clinical scores with just 2 doses | GI50 (HCT116 cell line): 210 nM | inhibition at 1 µM (B-lymphocyte cells; [5]): 101% | inhibition at 10 µM (B-lymphocyte cells; [5]): 103% | IC50 (B-lymphocyte cells; B-Cell + LPS): 38 nM | inhibition at 0.001 µM (B-lymphocyte cells; B-Cell + LPS, 1 nM, read-out: % Growth Inhibition): 0% | inhibition at 0.01 µM (B-lymphocyte cells; B-Cell + LPS, 10 nM, read-out: % Growth Inhibition): 38% | inhibition at 0.1 µM (B-lymphocyte cells; B-Cell + LPS, 0.1 μM, read-out: % Growth Inhibition): 80% | time to clinical recovery from start of treatment ([3]; 40 mg/kg i.p. once a week): ≤ 2 weeks | clinical progress and pathological findings ([3]; 20 and 40 mg/kg i.p. once a week for 4 weeks): profound and substantial change in the clinical progress and pathological findings | cells in existing lesions [3, 6]: profound loss of cells | remyelination (myelin pallor) [3, 6]: myelin pallor previously attributed to remyelination | scores for meningeal inflammation and perivascular infiltration ([3]; treated groups vs vehicle controls, CNS histopathology): more severe in the treated groups than in vehicle controls
